Measurements as given in patent publication EP0109294A2, “Cephalosporin esters” (Takeda Chemical Industries, Ltd., priority 1982, dated 1984).
Where a name gives a salt, the structure may show the parent alone.

Experiment: in vivo
Design: species or system mice
Conditions: mouse, 100 mg/kg; for Bio-availability / AUC / Plasma level of non-ester 2 hr: 120 min; for Plasma level of non-ester 0.25 hr / Plasma level of non-ester 0.5 hr / Plasma level of non-ester 1 hr / AUC / Plasma level of non-ester 2 hr: po; for Plasma level of non-ester 0.25 hr: 15 min; for Plasma level of non-ester 0.5 hr: 30 min; for Plasma level of non-ester 1 hr: 60 min
Experimental: The compounds produced according to the Examples (Compound Nos. 2, 4, 6 and 8) and, as a reference control, pivaloyloxymethyl ester of compound (II) (hereinafter referred to as Compound A) are orally administered to mice at a common dose level of 100 mg/kg (as the non-ester, i.e. compound (II) per mouse). After administration, the plasma concentrations of compound (II) at 0.25, 0.5, 1.0 and 2.0 hours are determined by the cup assay method (using Proteus mirabilis Eb 313 as the test organism) and the area under plasma concentration- time curve (AUC) over 0 to 2 hours is calculated.
As a control, compound (II) is subcutaneously administered to mice at the same dose and the AUC is similarly calculated.

| Structure (SMILES) | Bio-availability | Plasma level of non-ester 0.25 hr | Plasma level of non-ester 0.5 hr | Plasma level of non-ester 1 hr | AUC | Plasma level of non-ester 2 hr | AUC at 2 h (sc) | concentration at 0.25 h (sc) | concentration at 0.5 h (sc) | concentration at 1 h (sc) | concentration at 2 h (sc) | Bio-availability (sc) |
| --- | --- | --- | --- | --- | --- | --- | --- | --- | --- | --- | --- | --- |
| CC(OC(=O)C1=C(CSc2nnnn2CCN(C)C)CS[C@@H]2[C@H](NC(=O)Cc3csc(N)n3)C(=O)N12)OC(=O)C1CCCC1 (stereo partly drawn) [Compound No. 8, 1-(Cyclopentanecarbonyloxy)ethyl 7β-[2-(2-aminothiazol-4-yl)acetamido]-3-[[[1-(2-dimethylaminoethyl)-1H-tetrazol-5-yl]thio]methyl] ceph-3-em-4-carboxylate dihydrochloride] | 78.3 | 42.5 µg/mL | 29.9 µg/mL | 10.5 µg/mL | 30.4 µg·h/mL | 1.35 µg/mL |  |  |  |  |  |  |
| CC(OC(=O)C1=C(CSc2nnnn2CCN(C)C)CS[C@@H]2[C@H](NC(=O)Cc3csc(N)n3)C(=O)N12)OC(=O)C1CCCCC1 (stereo partly drawn) [Compound No. 4, 1-(Cyclohexanecarbonyloxy)ethyl 7β-[2-(2-amino-thiazol-4-yl)acetamido]-3-[[[1-(2-dimethylaminoethyl)-1H-tetrazol-5-yl]thio]methyl] ceph-3-em-4-carboxylate dihydrochloride] | 76.2 | 43.6 µg/mL | 31.7 µg/mL | 8.38 µg/mL | 29.6 µg·h/mL | 1.01 µg/mL |  |  |  |  |  |  |
| CN(C)CCn1nnnc1SCC1=C(C(=O)O)N2C(=O)[C@@H](NC(=O)Cc3csc(N)n3)[C@H]2SC1 [compound (II), 7S-[2-(2-aminothiazol-4-yl)-acetamido]-3-[[[1-(2-dimethylaminoethyl)-1H-tetrazol-5-yl]thio]methyl]ceph-3-em-4-carboxylic acid, reference compound] |  |  |  |  |  |  | 38800 ng·h/mL | 69.2 µg/mL | 29000 ng/mL | 13200 ng/mL | 1500 ng/mL | 100 |
| CC(OC(=O)CC1CCCC1)OC(=O)C1=C(CSc2nnnn2CCN(C)C)CS[C@@H]2[C@H](NC(=O)Cc3csc(N)n3)C(=O)N12 (stereo partly drawn) [Compound No. 6, 1-(Cyclopentylacetoxy)ethyl 7β-[2-(2-aminothiazol-4-yl)acetamido]-3-[[[1-(2-dimethylaminoethyl)-1H-tetrazol-5-yl]thio]methyl] ceph-3-em-4-carboxylate dihydrochloride] | 82.2 | 23.2 µg/mL | 27.2 µg/mL | 16.9 µg/mL | 31.9 µg·h/mL | 6.46 µg/mL |  |  |  |  |  |  |
| CC(OC(=O)CC1CCCCC1)OC(=O)C1=C(CSc2nnnn2CCN(C)C)CS[C@@H]2[C@H](NC(=O)Cc3csc(N)n3)C(=O)N12 (stereo partly drawn) [Compound No. 2, 1-(Cyclohexylacetoxy)ethyl 7β-[2-(2-aminothiazol-4-yl)acetamido]-3-[[[1-(2-dimethylaminoethyl)-1H-tetrazol-5-yl]thio]methyl] ceph-3-em-4-carboxylate dihydrochloride] | 107.7 | 43.9 µg/mL | 45.2 µg/mL | 16.4 µg/mL | 41.8 µg·h/mL | 3.1 µg/mL |  |  |  |  |  |  |
| CN(C)CCn1nnnc1SCC1=C(C(=O)OCOC(=O)C(C)(C)C)N2C(=O)[C@@H](NC(=O)Cc3csc(N)n3)[C@H]2SC1 [Compound A, pivaloyloxymethyl ester of compound (II), reference compound] | 41.8 | 21.0 µg/mL | 16.2 µg/mL | 6.1 µg/mL | 16.2 µg·h/mL | 0.6 µg/mL |  |  |  |  |  |  |
